Data on eight compounds can be found in ChEMBL document CHEMBL2157994, “Synthesis and in vitro and in vivo anticancer activity of novel 3-methyl-5H-isoxazolo[5',4':5,6]pyrido[2,3-b]indoles” (Bioorg Med Chem Lett, 2012).

As a reminder, the IC50 is the point on the concentration scale where inhibition reaches its midpoint. A high value points to a need for much substance.

In one data set the test system is NCI-H460. Put plainly: Cytotoxicity against human NCI-H460 cells after 48 hrs by MTT assay. Particulars: NCI-H460, 48 h. In kind it is functional, cell-based. (In general: Tetrazolium dyes change colour on reduction, which living cells bring about.)
The next data set has as its system MCF7. The data set can be described thus: Cytotoxicity against human MCF7 cells after 48 hrs by MTT assay. The data set is classed as functional, cell-based. Particulars: MCF7, 48 h.
In another data set the test system is HeLa. The data set can be described thus: Cytotoxicity against human HeLa cells after 48 hrs by MTT assay. In kind it is functional, cell-based.
Data set [1] can be described thus: Antitumor activity against mouse EAC cells xenografted in Swiss albino mouse assessed as viable tumor cells at 5 mg/kg/day, ip administered for 9 days measured on day 14 by trypan blue exclusion assay (reference value: 7 +/- 0.43 /ml). The data set is classed as functional, Ehrlich. Particulars: route intraperitoneal.
For data set [2], the system named is Mus musculus. The data set can be described thus: Toxicity in Swiss albino mouse xenografted with mouse EAC cells assessed as body weight at 5 mg/kg/day, ip administered for 9 days measured on day 14 (reference value: 13.57 +/- 0.8 g). In kind it is organism-based, Ehrlich. More on the design: route intraperitoneal. Particulars: in vivo, 216 h.
Data set [3] can be described thus: Antitumor activity against mouse EAC cells xenografted in Swiss albino mouse assessed as packed cell volume at 10 mg/kg/day, ip administered for 9 days measured on day 14 (reference value: 2.2 +/- 0.26 mL). In kind it is functional, Ehrlich. Particulars: route intraperitoneal.
Data set [4] relates to Mus musculus. The data set can be described thus: Toxicity in Swiss albino mouse xenografted with mouse EAC cells assessed as WBC level at 5 mg/kg/day, ip administered for 9 days measured on day 14 (reference value: 20.66 +/- 0.81 10^3/mm3). Particulars: in vivo, 216 h. In kind it is organism-based, Ehrlich. Details: route intraperitoneal.
Data set [5] relates to Mus musculus. The data set can be described thus: Toxicity in Swiss albino mouse xenografted with mouse EAC cells assessed as haemoglobin level at 10 mg/kg/day, ip administered for 9 days measured on day 14 (reference value: 5.54 +/- 0.734 g%). The data set is classed as organism-based, Ehrlich. More on the design: route intraperitoneal. Particulars: in vivo, 216 h.
The test system of data set [6] is Mus musculus. Put plainly: Hepatoprotective activity in Swiss albino mouse xenografted with mouse EAC cells assessed as SGPT level at 10 mg/kg/day, ip administered for 9 days measured on day 14 (reference value: 57.84 +/- 0.3 IU/L). The data set is classed as functional, Ehrlich. Particulars: route intraperitoneal.
Data set [7] in a line: Antitumor activity against mouse EAC cells xenografted in Swiss albino mouse assessed as viable tumor cells at 10 mg/kg/day, ip administered for 9 days measured on day 14 by trypan blue exclusion assay (reference value: 7 +/- 0.43 /ml). The data set is classed as functional, Ehrlich. Particulars: route intraperitoneal.
Data set [8] relates to Mus musculus. The data set can be described thus: Hepatoprotective activity in Swiss albino mouse xenografted with mouse EAC cells assessed as SGOT level at 5 mg/kg/day, ip administered for 9 days measured on day 14 (reference value: 112 +/- 1.42 IU/L). The data set is classed as functional, Ehrlich. Particulars: route intraperitoneal.
Data set [9] in a line: Antitumor activity against mouse EAC cells xenografted in Swiss albino mouse assessed as increase in life span at 10 mg/kg/day, ip administered for 9 days relative to vehicle-treated control. The data set is classed as functional, Ehrlich. Particulars: route intraperitoneal.
Data set [10] relates to Mus musculus. The data set can be described thus: Hepatoprotective activity in Swiss albino mouse xenografted with mouse EAC cells assessed as total protein level at 10 mg/kg/day, ip administered for 9 days measured on day 14 (reference value: 7.54 +/- 0.14 mg/dL). The data set is classed as functional, Ehrlich. Particulars: route intraperitoneal.
Data set [11] deals with Mus musculus. The data set can be described thus: Hepatoprotective activity in Swiss albino mouse xenografted with mouse EAC cells assessed as total protein level at 5 mg/kg/day, ip administered for 9 days measured on day 14 (reference value: 7.54 +/- 0.14 mg/dL). In kind it is functional, Ehrlich. Particulars: route intraperitoneal.
Data set [12] in a line: Antitumor activity against mouse EAC cells xenografted in Swiss albino mouse assessed as increase in life span at 5 mg/kg/day, ip administered for 9 days relative to vehicle-treated control. Particulars: route intraperitoneal. In kind it is functional, Ehrlich.
Data set [13] is described as follows: Antitumor activity against mouse EAC cells xenografted in Swiss albino mouse assessed as packed cell volume at 5 mg/kg/day, ip administered for 9 days measured on day 14 (reference value: 2.2 +/- 0.26 mL). In kind it is functional, Ehrlich. Particulars: route intraperitoneal.
The nature of data set [14]: Antitumor activity against mouse EAC cells xenografted in Swiss albino mouse assessed as tumor volume at 5 mg/kg/day, ip administered for 9 days measured on day 14 (reference value: 3.53 +/- 0.85 mL). In kind it is functional, Ehrlich. Particulars: route intraperitoneal.
Data set [15] can be described thus: Antitumor activity against mouse EAC cells xenografted in Swiss albino mouse assessed as non-viable tumor cells at 5 mg/kg/day, ip administered for 9 days measured on day 14 by trypan blue exclusion assay (reference value: 1.02 +/- 0.09 /ml). The data set is classed as functional, Ehrlich. Particulars: route intraperitoneal.
Data set [16] in a line: Antitumor activity against mouse EAC cells xenografted in Swiss albino mouse assessed as tumor volume at 10 mg/kg/day, ip administered for 9 days measured on day 14 (reference value: 3.53 +/- 0.85 mL). The data set is classed as functional, Ehrlich. Particulars: route intraperitoneal.
In data set [17] the test system is Mus musculus. The data set can be described thus: Toxicity in Swiss albino mouse xenografted with mouse EAC cells assessed as RBC level at 10 mg/kg/day, ip administered for 9 days measured on day 14 (reference value: 2.36 +/- 0.13 million/mm3). More on the design: route intraperitoneal. Particulars: in vivo, 216 h. In kind it is organism-based, Ehrlich.
The nature of data set [18]: Antitumor activity against mouse EAC cells xenografted in Swiss albino mouse assessed as non-viable tumor cells at 10 mg/kg/day, ip administered for 9 days measured on day 14 by trypan blue exclusion assay (reference value: 1.02 +/- 0.09 /ml). In kind it is functional, Ehrlich. Particulars: route intraperitoneal.
For another data set, the system named is Ehrlich. The data set can be described thus: Anticancer activity against mouse EAC cells xenografted in Swiss albino mouse assessed as decrease in ascitic fluid volume relative to tumor control. In kind it is functional.
Data set [19] deals with Mus musculus. Put plainly: Hepatoprotective activity in Swiss albino mouse xenografted with mouse EAC cells assessed as SGOT level at 10 mg/kg/day, ip administered for 9 days measured on day 14 (reference value: 112 +/- 1.42 IU/L). In kind it is functional, Ehrlich. Particulars: route intraperitoneal.
In data set [20] the test system is Mus musculus. Put plainly: Toxicity in Swiss albino mouse xenografted with mouse EAC cells assessed as haemoglobin level at 5 mg/kg/day, ip administered for 9 days measured on day 14 (reference value: 5.54 +/- 0.734 g%). In kind it is organism-based, Ehrlich. Details: route intraperitoneal. Particulars: in vivo, 216 h.
The subject of data set [21] is Mus musculus. Put plainly: Hepatoprotective activity in Swiss albino mouse xenografted with mouse EAC cells assessed as SGPT level at 5 mg/kg/day, ip administered for 9 days measured on day 14 (reference value: 57.84 +/- 0.3 IU/L). The data set is classed as functional, Ehrlich. Particulars: route intraperitoneal.
The test system of data set [22] is Mus musculus. Put plainly: Toxicity in Swiss albino mouse xenografted with mouse EAC cells assessed as WBC level at 10 mg/kg/day, ip administered for 9 days measured on day 14 (reference value: 20.66 +/- 0.81 10^3/mm3). The data set is classed as organism-based, Ehrlich. Details: route intraperitoneal. Particulars: in vivo, 216 h.
For data set [23], the system named is Mus musculus. Put plainly: Toxicity in Swiss albino mouse xenografted with mouse EAC cells assessed as body weight at 10 mg/kg/day, ip administered for 9 days measured on day 14 (reference value: 13.57 +/- 0.8 g). The data set is classed as organism-based, Ehrlich. Details: route intraperitoneal. Particulars: in vivo, 216 h.
The test system of data set [24] is Mus musculus. The data set can be described thus: Toxicity in Swiss albino mouse xenografted with mouse EAC cells assessed as RBC level at 5 mg/kg/day, ip administered for 9 days measured on day 14 (reference value: 2.36 +/- 0.13 million/mm3). The data set is classed as organism-based, Ehrlich. Details: route intraperitoneal. Particulars: in vivo, 216 h.

Molecules are shown by their SMILES. ≈ marks a conversion by molar mass, not a printed value. Calls of active or inactive are those of the source. The calls are words filed in the database; no cut-off is given here.

With `Cc1noc2cc3c(nc12)[nH]c1ccc(Cl)cc13`, the concentration for half-maximal inhibition (IC50) in the data set on NCI-H460 came out at 36.4 µg/mL (≈ 141 µM); in the data set with MCF7, 49.1 µg/mL (≈ 190 µM); in the data set with HeLa, 49.3 µg/mL (≈ 191 µM).

Consider `Cc1noc2cc3c(nc12)[nH]c1ccccc13`, for which the IC50 in the data set on NCI-H460 worked out at 49.2 µg/mL (≈ 221 µM); with MCF7 it was 53.4 µg/mL (≈ 239 µM); in the data set on HeLa, 54.5 µg/mL (≈ 244 µM).

Consider `Cc1noc2cc3c(nc12)[nH]c1c(C)cccc13`, for which the Activity in data set [1] stood at 4.74 ×10⁷ /ml; in the data set on Mus musculus [2], 9.76 g; in data set [3], 0.86 mL; with Mus musculus [4], 17.65 ×10³ /mm3; in the data set with Mus musculus [5] it was 8.88 g%; with Mus musculus [6] it was 41.06 IU/L. In addition, the Activity stood at 2.97 ×10⁷ /ml in data set [7]; 106.3 IU/L in the data set with Mus musculus [8]; 75% in data set [9]; 4.77 mg/dL with Mus musculus [10]; 6.43 mg/dL with Mus musculus [11]; 36.36% in data set [12]. Moreover, the Activity in [13] was determined as 1.36 mL; in data set [14], 2.13 mL; in data set [15], 2.31 ×10⁷ /ml; in data set [16] it was 1.4 mL; with Mus musculus [17], 4.14 million/mm3; in data set [18], 4.2 ×10⁷ /ml. Moreover, the Activity was determined as 101.06 IU/L with Mus musculus [19]; 7.09 g% in the data set with Mus musculus [20]; 55.1 IU/L in the data set with Mus musculus [21]; 15.25 ×10³ /mm3 in the data set on Mus musculus [22]; 5.93 g in the data set with Mus musculus [23]; 3.34 million/mm3 with Mus musculus [24]. Further, the IC50 in the data set with NCI-H460 stood at 20.4 µg/mL (≈ 86.2 µM); with MCF7, 22.5 µg/mL (≈ 94.9 µM); with HeLa, 23.6 µg/mL (≈ 99.6 µM). Moreover, the result in the data set on Ehrlich was Active.

`Cc1noc2cc3c(nc12)[nH]c1ccc(F)cc13`: the half-inhibitory concentration (IC50) in the data set on NCI-H460 was 52.4 µg/mL (≈ 217 µM); with MCF7 it was 51.3 µg/mL (≈ 213 µM); with HeLa, 50.5 µg/mL (≈ 209 µM).

Regarding `Cc1ccc2[nH]c3nc4c(C)noc4cc3c2c1`, the Activity is 6.43 ×10⁷ /ml in [1]; 11.23 g with Mus musculus [2]; 1.33 mL in [3]; 19.19 ×10³ /mm3 in the data set with Mus musculus [4]; 7.3 g% in the data set with Mus musculus [5]; 47.46 IU/L with Mus musculus [6]. For the same compound, the Activity worked out at 5.2 ×10⁷ /ml in data set [7]; 106.1 IU/L with Mus musculus [8]; 44.4% in data set [9]; 6.63 mg/dL in the data set with Mus musculus [10]; 7.18 mg/dL with Mus musculus [11]; 11.08% in data set [12]. In addition, the Activity in data set [13] is 1.8 mL; in data set [14], 2.43 mL; in data set [15], 1.62 ×10⁷ /ml; in data set [16] it was 1.63 mL; in the data set with Mus musculus [17], 3.66 million/mm3; in [18], 2.07 ×10⁷ /ml. For the same compound, the Activity in the data set on Mus musculus [19] is listed as 98.6 IU/L; with Mus musculus [20] it was 6.26 g%; in the data set with Mus musculus [21], 54 IU/L; in the data set on Mus musculus [22] it was 16.58 ×10³ /mm3; in the data set on Mus musculus [23], 8.36 g; in the data set with Mus musculus [24], 2.93 million/mm3. Moreover, the figures for the half-maximal inhibitory concentration (IC50) in the data set with NCI-H460, in the data set on MCF7 and in the data set on HeLa were 16.7 µg/mL (≈ 70.3 µM), 18.8 µg/mL (≈ 79.3 µM) and 19.7 µg/mL (≈ 83.1 µM), respectively. Besides, the result with Ehrlich was Active.

With `COc1ccc2[nH]c3nc4c(C)noc4cc3c2c1`, the results for the IC50 in the data set with NCI-H460, with MCF7 and in the data set on HeLa were 45.2 µg/mL (≈ 178 µM), 46.5 µg/mL (≈ 184 µM) and 48.3 µg/mL (≈ 191 µM), respectively.

As for `Cc1noc2cc3c(nc12)[nH]c1ccc(Br)cc13`, the half-inhibitory concentration (IC50) in the data set on NCI-H460 was found to be 63.2 µg/mL (≈ 209 µM); with MCF7 it was 60.4 µg/mL (≈ 200 µM); in the data set with HeLa, 61.1 µg/mL (≈ 202 µM).

Turning to `Cc1noc2cc3c(nc12)[nH]c1c(Cl)cccc13`, the values for the IC50 with NCI-H460, in the data set with MCF7 and in the data set with HeLa were 52.3 µg/mL (≈ 203 µM), 54.5 µg/mL (≈ 212 µM) and 55.6 µg/mL (≈ 216 µM), respectively.
